From ChEMBL document CHEMBL1201862, “PubChem BioAssay data set” (2004)
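Each compound was tested at five concentrations against cells in 96-well plates for 48 hours. At the GI50, growth is halved.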 Calls of active or inactive are those of the source. Rule as the data show it: active = GI50 up to about 1.1 µM and inactive = higher.

Key:
Assay in all cases: growth of human tumour cells (NCI), 48 h
A498 = tested on: A498
ACHN = tested on: ACHN
HCC 2998 = tested on: HCC 2998
HL-60 = tested on: HL-60
HOP-92 = tested on: HOP-92
Hs-578T = tested on: Hs-578T
KM12 = tested on: KM12
MCF7 = tested on: MCF7
MDA-MB-231 = tested on: MDA-MB-231
MDA-MB-435 = tested on: MDA-MB-435
NCI-H23 = tested on: NCI-H23
NCI-H460 = tested on: NCI-H460
PC-3 = tested on: PC-3
RPMI-8226 = tested on: RPMI-8226
SF-268 = tested on: SF-268
SK-MEL-28 = tested on: SK-MEL-28
SN12C = tested on: SN12C
SNB-19 = tested on: SNB-19
TK-10 = tested on: TK-10
UACC-62 = tested on: UACC-62

Measured: GI50

NCCCCNCCCN1CC1
active: A498 0.319 µM | ACHN 0.902 µM | HL-60 0.436 µM | HOP-92 0.279 µM | Hs-578T 0.433 µM | MDA-MB-231 0.624 µM | SF-268 0.957 µM
inactive: HCC 2998 5.73 µM | KM12 4.67 µM | MCF7 20.6 µM | MDA-MB-435 1.15 µM | NCI-H23 2.57 µM | NCI-H460 5.5 µM | PC-3 5.22 µM | RPMI-8226 8 µM | SK-MEL-28 1.72 µM | SN12C 1.19 µM | SNB-19 1.86 µM | TK-10 2.04 µM | UACC-62 5.18 µM

C[C@]12CC[C@@H]3c4ccc(OP(=O)(O)O)cc4CC[C@H]3[C@@H]1CCC2=O
inactive: A498 > 100 µM | ACHN > 100 µM | HCC 2998 > 100 µM | HL-60 71.4 µM | HOP-92 > 100 µM | Hs-578T 41.3 µM | KM12 54.5 µM | MCF7 > 100 µM | MDA-MB-231 80.7 µM | MDA-MB-435 67.5 µM | NCI-H23 63.1 µM | NCI-H460 91.6 µM | PC-3 62.4 µM | RPMI-8226 44.4 µM | SF-268 > 100 µM | SK-MEL-28 > 100 µM | SN12C 70.1 µM | SNB-19 > 100 µM | TK-10 > 100 µM | UACC-62 66.2 µM

COC(=O)c1c2c(cc3c1CC1(C3)Cc3cc4c(c(C(C)=O)c3C1)CCC4)C=CC2 (stereo not given)
inactive: A498 > 31.6 µM | ACHN 10.2 µM | HCC 2998 > 10 µM | HL-60 16.7 µM | HOP-92 > 31.6 µM | Hs-578T > 31.6 µM | KM12 > 31.6 µM | MCF7 22.2 µM | MDA-MB-231 > 20.7 µM | MDA-MB-435 30.5 µM | NCI-H23 > 31.6 µM | NCI-H460 > 31.6 µM | PC-3 > 31.6 µM | RPMI-8226 14.2 µM | SF-268 > 31.6 µM | SK-MEL-28 29.4 µM | SN12C > 31.6 µM | SNB-19 > 31.6 µM | TK-10 > 31.6 µM | UACC-62 30.7 µM

CN(CCc1ccccn1)c1ccc2c(c1)Cc1ccccc1-2
inactive: A498 16.8 µM | ACHN 22.5 µM | HCC 2998 29.5 µM | HL-60 20.4 µM | HOP-92 10.2 µM | Hs-578T 4.54 µM | KM12 14.4 µM | MCF7 20.1 µM | MDA-MB-231 3.09 µM | MDA-MB-435 31 µM | NCI-H23 27.7 µM | NCI-H460 5.75 µM | PC-3 2.92 µM | RPMI-8226 14.1 µM | SF-268 6.5 µM | SK-MEL-28 29.2 µM | SN12C 33.8 µM | SNB-19 19.3 µM | TK-10 31.5 µM | UACC-62 10.6 µM
